From patent publication US20160339187A1, “DEVICES AND METHODS FOR CONTROLLED DRUG DELIVERY OF WET AEROSOLS” (THE RESEARCH FOUNDATION FOR THE STATE UNIVERSITY OF NEW YORK, priority 2014, published 2016)

Assays:
[1] = Gamma camera deposition in patients inhaling aerosol during tidal breathing from AeroTech II nebulizers; format: in vivo, human; settings: group of patients, AeroTech II type nebulizers
[2] = 15 normal subjects, Aeroneb nebulizer with Idehaler; cited from earlier work

Structure (SMILES)	upper airway deposition as a percentage of total deposition [1]	oropharyngeal activity (average) [2]
N=C(N)c1ccc(OCCCCCOc2ccc(C(=N)N)cc2)cc1 [pentamidine]	≤ 5%	–
NCC[C@H](O)C(=O)N[C@@H]1C[C@H](N)[C@@H](O[C@H]2O[C@H](CN)[C@@H](O)[C@H](O)[C@H]2O)[C@H](O)[C@H]1O[C@H]1O[C@H](CO)[C@@H](O)[C@H](N)[C@H]1O [amikacin]	–	29.4±7.4%
